{"source": "patent US5763474A", "about": "“Substituted N-arylmethylamino derivatives of cyclobutene-3,4-diones” (American Home Products Corporation, priority 1997, dated 1998)", "key": {"[1]": {"system": "hypertrophied bladder (detrussor) smooth muscle in conscious female rats", "assay": "Inhibition of Spontaneous Contractions In Vivo in the hypertrophied rat bladder model (cystometry, conscious rats)", "parameters": "species or system Female Sprague-Dawley rats", "experimental": "In addition, we tested the ability of compounds to inhibit the hyperactivity of hypertrophied bladder (detrussor) smooth muscle in conscious female rats with hypertrophied bladders and thereby alleviate urinary incontinence in rats according to the following protocol described by Malmgren et al., J. Urol. 142:1134, 1989:\nFemale Sprague-Dawley rats, ranging in weight from 190-210 g are used. Up to 25 animals are prepared each time. After developemnt of bladder hypertrophy 4-8 animals are used per test.\nCompounds are dissolved in PEG-200 and administered by gastric gavage or intraveneously in a volume of 5 ml/kg. For primary screening all drugs are administered at the arbitrary dose of 10 mg/kg p.o. to groups of 4 rats.\nThe animals are anesthetized with halothane. Through a midline incision the bladder and urethra are exposed and a ligature of 4-0 silk is tied around the proximal urethra in the presence of a stainless steel rod (1 mm diameter) to produce a partial occlusion. The rod is then removed. The abdominal region is closed using surgical staples and each rat receives 150,000 units of bicillin C-R. The animals are allowed six weeks to develop sufficient bladder hypertrophy. After six weeks, the ligature is removed under halothane anesthesia and a catheter (PE 60) with a cuff is placed in the dome of the bladder and secured with a purse string suture. The catheter is tunneled under the skin and exteriorized through an opening in the back of the neck. The abdominal incision is sutured and the free end of the catheter sealed. In order to prevent infections the rats receive an injection of bicillin C-R (150000 units/rat). Two days later the animals are used in cystometrical evaluations, The animals are placed in the metabolic cages and the catheter is attached (using a \"T\" connector) to a Statham pressure transducer (Model P23Db) and to a Harvard infusion pump. A plastic beaker attached to a force displacement transducer (Grass FTO3) is placed under the rat's cage to collect and record urine volume. Animals are allowed 15-30 minutes to rest before the saline infusion (20 ml/hr for 20 minutes) is started for the first cystometry period. Two hours after the first cystometry period, the rats are dosed with the vehicle or the test compound and one hour later a second cystometry is performed.\nThe following urodynamic variables are recorded:\nThe mean value of each variable is calculated before and after compound administration. For each compound the changes in the variables measured are compared to the values obtained before treatment and expressed as percent inhibition. The data are also subjected to 2-way analysis of variance to determine significant (p<0.05) changes in the variable measured. The most characteristic finding in this rat model is spontaneous bladder contractions which develop during filling."}, "[2]": {"system": "Isolated Rat Bladder Strips", "assay": "Inhibition of Contractions in Isolated Rat Bladder Strips (15 mM KCl-enhanced contractile activity)", "parameters": "species or system Sprague-Dawley rats", "details": "for activity at 30 µM: read-out: Percent contraction at 30 μM (C); for inhibition at 30 µM: read-out: Percent inhibition at 30 μM (I)", "text": "The smooth muscle relaxing activity of the compounds of this invention was established in accordance with standard pharmaceutically accepted test procedures with representative compounds as follows:\nSprague-Dawley rats (150-200 g) are rendered unconscious by CO2 asphyxiation and then euthanized by cervical dislocation. The bladder is removed into warm (37 deg.C.) physiological salt solution (PSS) of the following composition (mM): NaCl, 118.4; KCl, 4.7; CaCl2, 2.5; […]; NaHCO3, 24.9; KH2 PO4, 1.2; glucose, 11.1; EDTA, 0.023; gassed with […]; pH 7.4. The bladder is opened and then cut into strips 1-2 mm in width and 7-10 mm in length. The strips are subsequently suspended in a 10 mL tissue bath under an initial resting tension of 1.5 g. The strips are held in place by two surgical clips one of which is attached to a fixed hook while the other is attached to an isometric force transducer. […] The carbachol is then washed out and the tissue allowed to relax to its resting level of activity. Following a further 30 minute period of recovery an additional 15 mM KCl are introduced into the tissue bath. This increase in KCl concentration results in a large increase in the amplitude of spontaneous contractions (and initiation of contractions in previously quiescent strips) superimposed upon a small increase in basal tone. Following stabilization of this enhanced level of contractile activity, incremental increases in the concentration of test compound or vehicle are introduced into the tissue bath. Contractile activity is measured for each compound or vehicle concentration during the last minute of a 30 minute challenge.\nThe isometric force developed by the bladder strips is measured using a […]. The (IC50 concentration) is calculated from this concentration-response curve."}, "[3]": {"details": "0.5 h, isolated rat bladder strips"}, "[4]": {"details": "0.5 h, isolated rat bladder strips, 15 mM KCl, 30 minute challenge, read-out: IC50, inhibition of contractions in isolated rat bladder strips"}}, "note": "Where two headings read alike, the source gives them in different places.", "data": [{"smiles": "CCCC(=O)N(Cc1c(C)cc(Cl)cc1Cl)c1c(NC(C)(C)CC)c(=O)c1=O", "note": "[Example 17, N-(2,4-Dichloro-6-methyl-benzyl)-N-[2-(1,1-dimethyl-2proplylamino)-3,4-dioxo-cyclobut-1-envl]-butyramide]", "values": [{"measurement": "% Red (F): percent reduction in the total number of spontaneous contractions", "setting": "[1]; 10 mg/kg p.o.", "value": "-87 ± 2", "unit": "%"}, {"measurement": "activity at 30 µM", "setting": "[2]; [3]", "value": "245 ± 15", "unit": "%"}]}, {"smiles": "CCC(CC)Nc1c(NCc2ccc(Cl)cc2Cl)c(=O)c1=O", "note": "[Example 15, 3-(2,4-dichloro-benzylamino)-4-(1-ethyl-propylamino)-cyclobut-3-ene-1,2-dione]", "values": [{"measurement": "IC50", "setting": "[2]; [4]", "value": "2 ± 0.8", "unit": "µM"}]}, {"smiles": "Cc1cc(Cl)cc(Cl)c1CNc1c(NC(C)(C)C)c(=O)c1=O", "note": "[Example 12, 3-tert-butylamino-4-(2,4-dichloro-6-methyl-benzylamino)-cyclobut-3-ene-1,2-dione]", "values": [{"measurement": "% Red (F): percent reduction in the total number of spontaneous contractions", "setting": "[1]; 3 mg/kg p.o.", "value": "-53 ± 18", "unit": "%"}, {"measurement": "IC50", "setting": "[2]; [4]", "value": "0.22 ± 0.08", "unit": "µM"}]}, {"smiles": "CCC(CC)Nc1c(NCc2ccc(Cl)c(Cl)c2)c(=O)c1=O", "note": "[Example 14, 3-(3,4-Dichloro-benzylamino)-4-(1-ethyl-propylamino)-cyclobut-3-ene-1,2-dione]", "values": [{"measurement": "inhibition at 30 µM", "setting": "[2]; isolated rat bladder strips", "value": "22 ± 5.9", "unit": "%"}]}, {"smiles": "CCC(C)(C)Nc1c(N(Cc2ccc(Cl)cc2Cl)C(C)=O)c(=O)c1=O", "note": "[Example 7, N-(2,4-dichloro-benzyl)-N-[2-(1,1-dimethyl-propylamino)-3,4-dioxo-cyclobut-1-enyl]-acetamide]", "values": [{"measurement": "IC50", "setting": "[2]; [4]", "value": "15.8 ± 0.05", "unit": "µM"}]}, {"smiles": "CCC(C)(C)Nc1c(NCc2ccc(Cl)cc2Cl)c(=O)c1=O", "note": "[Example 6, 3-(2,4-Dichlorobenzylamino)-4-(1,1-dimethylpropylamino)-cyclobut-3-ene-1,2-dione]", "values": [{"measurement": "% Red (F): percent reduction in the total number of spontaneous contractions", "setting": "[1]; 1 mg/kg p.o., prior lot, mp. 195-196° C.", "value": "-40 ± 13", "unit": "%"}, {"measurement": "% Red (F): percent reduction in the total number of spontaneous contractions", "setting": "[1]; 3 mg/kg p.o., prior lot, mp. 195-196° C.", "value": "-58 ± 9", "unit": "%"}, {"measurement": "% Red (F): percent reduction in the total number of spontaneous contractions", "setting": "[1]; 10 mg/kg p.o., prior lot, mp. 195-196° C.", "value": "-68 ± 10", "unit": "%"}, {"measurement": "IC50", "setting": "[2]; [4]", "value": "0.11 ± 0.002", "unit": "µM"}, {"measurement": "IC50", "setting": "[2]; Rattus norvegicus, prior lot of this compound, mp. 195-196° C., n = 4, read-out: IC50, prior lot", "value": "0.21 ± 0.04", "unit": "µM"}]}, {"smiles": "CC(C)(C)Nc1c(NCc2ccc(Cl)cc2Cl)c(=O)c1=O", "note": "[Example 11, 3-(t-Butylamino)-4-(2,4-dichlorobenzylamino) cyclobut-3-ene-1,2-dione]", "values": [{"measurement": "IC50", "setting": "[2]; [4]", "value": "1.3 ± 0.6", "unit": "µM"}]}, {"smiles": "CC(C)(C)Nc1c(NCc2ccc(Cl)c(Cl)c2)c(=O)c1=O", "note": "[Example 24, 3-tert-Butylamino-4-(3,4-dichlorobenzylamino)-cyclobut-3-ene-1,2-dione]", "values": [{"measurement": "activity at 30 µM", "setting": "[2]; [3]", "value": 30, "unit": "%"}, {"measurement": "IC50", "setting": "[2]; [4]", "value": "1.48 ± 0.57", "unit": "µM"}, {"measurement": "inhibition at 30 µM", "setting": "[2]; isolated rat bladder strips", "value": "32.5 ± 3.1", "unit": "%"}]}, {"smiles": "CC(Nc1c(NCc2ccc(Cl)cc2Cl)c(=O)c1=O)C(C)(C)C", "note": "(stereo not drawn) [Example 2, 3-(2,4-Dichlorobenzylamino)-4-(1,2,2-trimethylproylamino)-cyclobut-3-ene-1,2-dione]", "values": [{"measurement": "IC50", "setting": "[2]; [4]", "value": "2 ± 1", "unit": "µM"}]}, {"smiles": "Cc1cc(Cl)cc(Cl)c1CNc1c(N[C@H](C)C(C)(C)C)c(=O)c1=O", "note": "[Example 4, (R)-3-(2,4-dichloro-6-methyl-benzylamino)-4-(1,2,2-trimethyl-propylamino)-cyclobut-3-ene-1,2-dione]", "values": [{"measurement": "IC50", "setting": "[2]; [4]", "value": "9.8 ± 5.1", "unit": "µM"}]}, {"smiles": "CC(C)(CO)Nc1c(NCc2ccc(Cl)cc2Cl)c(=O)c1=O", "note": "[Example 22, 3-(2,4-Dichlorobenzylamino)-4-(2-hvdroxy-1,1-dimethylethylamino)-cyclobut-3-ene-1,2-dione]", "values": [{"measurement": "IC50", "setting": "[2]; [4]", "value": "24 ± 9.3", "unit": "µM"}]}, {"smiles": "CCC(C)(C)Nc1c(N(Cc2c(C)cc(Cl)cc2Cl)C(=O)OC(C)(C)C)c(=O)c1=O", "note": "[Example 26, (2,4-Dichloro-6-methyl-benzyl)-[2-(1,1-dimethyl-propylamino)-3,4-dioxo-cyelobut-1-enyl]-carbamic acid tert-butyl ester]", "values": [{"measurement": "IC50", "setting": "[2]; [4]", "value": "4.5 ± 4.2", "unit": "µM"}]}, {"smiles": "CCC(C)(C)Nc1c(N(Cc2c(C)cc(Cl)cc2Cl)C(C)=O)c(=O)c1=O", "note": "[Example 18, N-(2,4-Dichloro-6-methyl-benzyl)-N-[2-(1,1-dimethyl-propylamino)-3,4-dioxo-cyclobut-1-enyl]-acetamide]", "values": [{"measurement": "inhibition at 30 µM", "setting": "[2]; isolated rat bladder strips", "value": "26 ± 13.8", "unit": "%"}]}, {"smiles": "CCC(C)(C)Nc1c(NCc2c(C)cc(Cl)cc2Cl)c(=O)c1=O", "note": "[Example 9, 3-(2,4-Dichloro-6-methyl-benzylamino)-4-(1,1-dimethyl-propylamino)-cyclobut-3-ene-1 2-dione]", "values": [{"measurement": "% Red (F): percent reduction in the total number of spontaneous contractions", "setting": "[1]; 1 mg/kg p.o.", "value": "-63 ± 13", "unit": "%"}, {"measurement": "% Red (F): percent reduction in the total number of spontaneous contractions", "setting": "[1]; 3 mg/kg p.o.", "value": "-82 ± 5", "unit": "%"}, {"measurement": "IC50", "setting": "[2]; [4]", "value": "0.2 ± 0.06", "unit": "µM"}]}, {"smiles": "C[C@@H](Nc1c(NCc2ccc(Cl)cc2Cl)c(=O)c1=O)C(C)(C)C", "note": "[Example 23, (R)-3-(2,4-dichlorobenzylamino)-4-(1,2,2-trimethylpropylamino)-cyclobut-3-ene-1,2-dione]", "values": [{"measurement": "IC50", "setting": "[2]; [4]", "value": "0.34 ± 0.22", "unit": "µM"}]}, {"smiles": "Cc1cc(Cl)cc(Cl)c1CNc1c(NCC(F)(F)C(F)(F)F)c(=O)c1=O", "note": "[Example 16]", "values": [{"measurement": "IC50", "setting": "[2]; [4]", "value": "9.35 ± 0.46", "unit": "µM"}, {"measurement": "inhibition at 30 µM", "setting": "[2]; isolated rat bladder strips", "value": "36 ± 3.2", "unit": "%"}]}, {"smiles": "CCC(=O)N(c1c(NCc2c(C)cc(Cl)cc2Cl)c(=O)c1=O)C(C)(C)C", "note": "[Example 19, N-(tert-butyl)-N-[2-(2,4-Dichloro-6-methyl-benzylamino)-3,4-dioxo-cylobut-1-enyl]-propionamide]", "values": [{"measurement": "activity at 30 µM", "setting": "[2]; [3]", "value": "92.5 ± 44.2", "unit": "%"}]}, {"smiles": "CCC(C)(C)Nc1c(NCc2ccc(Cl)c(Cl)c2)c(=O)c1=O", "note": "[Example 25]", "values": [{"measurement": "activity at 30 µM", "setting": "[2]; [3]", "value": "57.9 ± 4.2", "unit": "%"}, {"measurement": "IC50", "setting": "[2]; [4]", "value": "8.9 ± 4", "unit": "µM"}]}, {"smiles": "CCCC(=O)N(Cc1ccc(Cl)cc1Cl)c1c(NC(C)(C)CC)c(=O)c1=O", "note": "[Example 8, N-(2,4-dichloro-benzyl)-N-[2-(1,1-dimethyl-propylamino)-3,4-dioxo-cyclobut-1-enyl]-butyramide]", "values": [{"measurement": "activity at 30 µM", "setting": "[2]; [3]", "value": "82.8 ± 26", "unit": "%"}, {"measurement": "inhibition at 30 µM", "setting": "[2]; isolated rat bladder strips", "value": 10.2, "unit": "%"}]}, {"smiles": "Cc1cc(Cl)cc(Cl)c1CNc1c(NC(C)C(C)(C)F)c(=O)c1=O", "note": "(stereo not drawn) [Example 20, 3-(2,4-dichloro-6-methyl-benzylamino)-4-(1,2-dimethyl-2-fluoro-propylamino)-cyclobut-3-ene-1,2-dione]", "values": [{"measurement": "IC50", "setting": "[2]; [4]", "value": "2.53 ± 0.19", "unit": "µM"}]}]}
